Experimental findings from ChEMBL document CHEMBL1201862, “PubChem BioAssay data set” (2004) are described below.

Calls of active or inactive are those of the source.

One test deals with Genome polyprotein (dengue virus type 2, UniProt P29990). As to the kind of experiment: Dengue-2 NS5 methyltransferase inhibitors, primary screen, biochemical, confirmation dose response (AID 588689). The format is functional.
Test [1] is described as follows: Counterscreen for AddAB inhibitors: absorbance-based bacterial cell-based high throughput dose response assay for inhibitors of bacterial viability. [Related pubchem assays (depositor defined):AID435030, AID449728, AID449731, AID488942, AID488955, AID488956]. It counts as functional. In general terms: The purpose of a counterscreen is to sort out artefacts and off-target activity.

A further test has as its system INS1. As to the kind of experiment: beta cell apoptosis inhibitors, cytokine rescue, dose response, luminescence, retest (AID 449756).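 Further: cell death triggered by IL-1 beta plus TNF-alpha plus IFN-gamma mixture; protective hits raise ATP signal compared with cytokine alone wells.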 It counts as functional, cell-based. To be noted: Rattus norvegicus.
The nature of test [2]: Shn3 3'UTR reporter inhibitors, dose response, cell-based, Clone20 osteoblasts, firefly luciferase, cherry-picked (AID 624132).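 Further: firefly luciferase luminescence from reporter carrying the Shn3 3'UTR in osteoblasts.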 It counts as functional.
Test [3] in a line: cytotoxicity toward NIH3T3 fibroblasts, dose response, counter-screen, cell-based, ATP luminescence, mouse fibroblasts (AID 2010).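 Further: cells exposed to compound for about 90 hours before reading.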 The format is functional.
Test [4] is described as follows: THP-1 cell cytotoxicity, dose response, cytotoxicity control for non-replicating M. tuberculosis project (AID 489025). The format is functional.

Sequence of Genome polyprotein (P29990 2492-3391 limits assumed): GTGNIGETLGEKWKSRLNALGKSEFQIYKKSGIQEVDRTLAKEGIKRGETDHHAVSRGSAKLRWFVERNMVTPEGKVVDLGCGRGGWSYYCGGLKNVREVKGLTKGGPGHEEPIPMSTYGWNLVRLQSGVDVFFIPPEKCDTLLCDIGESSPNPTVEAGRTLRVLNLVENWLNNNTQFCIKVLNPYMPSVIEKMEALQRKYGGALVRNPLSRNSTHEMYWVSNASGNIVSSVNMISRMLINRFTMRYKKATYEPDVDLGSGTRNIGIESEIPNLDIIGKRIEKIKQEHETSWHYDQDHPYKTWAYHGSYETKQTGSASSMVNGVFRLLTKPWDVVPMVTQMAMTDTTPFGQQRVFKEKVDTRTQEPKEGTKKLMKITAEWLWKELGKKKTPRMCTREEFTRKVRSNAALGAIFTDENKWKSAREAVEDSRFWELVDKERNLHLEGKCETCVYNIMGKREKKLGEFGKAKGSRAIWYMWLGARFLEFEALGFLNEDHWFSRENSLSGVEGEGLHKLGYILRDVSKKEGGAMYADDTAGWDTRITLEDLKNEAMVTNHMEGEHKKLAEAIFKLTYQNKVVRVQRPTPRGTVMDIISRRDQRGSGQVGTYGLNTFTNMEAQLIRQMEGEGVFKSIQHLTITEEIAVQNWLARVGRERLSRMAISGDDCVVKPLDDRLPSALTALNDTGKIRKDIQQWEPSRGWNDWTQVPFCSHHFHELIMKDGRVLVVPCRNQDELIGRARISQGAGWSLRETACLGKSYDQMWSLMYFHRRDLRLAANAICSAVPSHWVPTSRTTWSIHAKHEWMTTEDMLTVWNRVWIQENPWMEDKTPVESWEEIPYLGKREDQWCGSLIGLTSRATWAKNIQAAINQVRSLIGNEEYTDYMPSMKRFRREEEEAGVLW

A word on the IC50: it is the concentration needed to halve the response being measured. For the molecule `O=C(O)CSc1cc(NS(=O)(=O)c2ccc(Br)cc2)c2ccccc2c1O`, the half-maximal inhibitory concentration (IC50) on Genome polyprotein is 7.66 µM (active).
For orientation: AC50 means the concentration at which the activity in the assay is half-maximal. As for `O=C(CC(O)(C(F)(F)F)C(F)(F)F)Nc1ccc(Cl)c(Cl)c1`, the IC50 in test [1] was 39 µM (inactive). The AC50 is 2.44 µM (active) in the test on INS1 and 4.97 µM (active) in test [2].
The EC50 is the concentration that produces a half-maximal response. For orientation: CC50 means the concentration giving 50% cytotoxicity. As to `O=C(CNc1cccc2ccccc12)N/N=C/c1ccc([N+](=O)[O-])o1`, the EC50 in test [3] is given as > 60 µM (not active). The CC50 in test [4] was 16.8 µM (active). Besides, in test [1], the IC50 is > 118 µM (inactive). Besides, the AC50 with INS1 was 5.58 µM (active).
For the molecule `Cc1ccc(NC(=O)C2=C(c3ccccc3)S(=O)(=O)CCS2(=O)=O)cc1`, the EC50 in test [3] is 2.48 µM (active). Besides, the CC50 in test [4] is 19.4 µM (active). For the same molecule, the AC50 in the test on INS1 is 6.54 µM (active); in test [2], 0.558 µM (active). Further, the IC50 at Genome polyprotein was > 100 µM (active).
